The record followed here is patent publication US9556158B2, “Fungicidal 3-[(pyridin-2-ylmethoxyimino)(phenyl)methyl]-2-substituted-1,2,4-oxadiazol-5(2H)-one derivatives” (BAYER INTELLECTUAL PROPERTY GMBH, priority 2011, dated 2017).

The conditions of series [1]: pH 2.7, LogP, HPLC on reversed phase columns, pH 2.7, 0.1% formic acid in water / acetonitrile gradient.
Description: Measurement of log P values was performed according EEC directive 79/831 Annex V.A8 by HPLC (High Performance Liquid Chromatography) on reversed phase columns with the following method:
Measurement of LC-MS was done at pH 2.7 with 0.1% formic acid in water and with acetonitrile (contains 0.1% formic acid) as eluent with a linear gradient from 10% acetonitrile to 95% acetonitrile.
Calibration was done with not branched alkan2-ones (with 3 to 16 carbon atoms) with known log P-values (measurement of log P values using retention times with linear interpolation between successive alkanones). lambda-maX-values were determined using UV-spectra from 200 nm to 400 nm and the peak values of the chromatographic signals.
Series [2] deals with Phytophthora infestans. It counts as in vivo. The following applies: 100 ppm of active ingredient, preventive spray, inoculation one day after treatment, evaluated 7 days after inoculation.
For the next series, the system named is Plasmopara viticola. Kind of series: Example I: in vivo preventive test on Plasmopara viticola (grapevine). The following applies: 144 h, 10 ppm of active ingredient, preventive spray on young plants, evaluated 6 days after inoculation, read-out: Eff. %. The method, then:
In Vivo Preventive Test on Plasmopara viticola (Grapevine)
To produce a suitable preparation of active compound, 1 part by weight of active compound is mixed with the stated amounts of solvent and emulsifier, and the concentrate is diluted with water to the desired concentration.
To test for preventive activity, young plants are sprayed with the preparation of active compound at the stated rate of application. After the spray coating has dried on, the plants are inoculated with an aqueous spore suspension of Plasmopara viticola and then remain for 1 day in an incubation cabinet at approximately 20° C. and a relative atmospheric humidity of 100%. The plant is subsequently placed for 4 days in a greenhouse at approximately 21° C. and a relative atmospheric humidity of approximately 90%. The plants are then misted and placed for 1 day in an incubation cabinet.
The test is evaluated 6 days after the inoculation. 0% means an efficacy which corresponds to that of the untreated control, while an efficacy of 100% means that no disease is observed.

The next series has as its system Puccinia recondita. The series is described as follows: Example E: in vivo preventive test on Puccinia recondita (brown rust on wheat). The following applies: 500 ppm, preventive spray on wheat plants, contamination after 24 hours, grading 12 days after contamination vs control plants. The method, then:
In Vivo Preventive Test on Puccinia recondita (Brown Rust on Wheat)
The active ingredients tested are prepared by homogenization in a mixture of acetone/tween/DMSO, and then diluted with water to obtain the desired active material concentration.
Wheat plants (“Scipion” variety), sown in starter cups on a 50/50 peat soil-pozzolana substrate and grown at 22° C., are treated at the 1-leaf stage (10 cm height) by spraying with the active ingredient prepared as described above. Plants, used as controls, are treated with the mixture of acetone/tween/DMSO/water not containing the active material.
After 24 hours, the plants are contaminated by spraying the leaves with an aqueous suspension of Puccinia recondita spores (100 000 spores per ml). The spores are collected from an infected plant and are suspended in water containing 2.5 ml/l of Tween 80 at 10%. The contaminated wheat plants are incubated for 24 hours at 20° C. and at 100% relative humidity, and then for 10 days at 20° C. and at 70-80% relative humidity.
Grading (% of efficacy) is carried out 12 days after the contamination, in comparison with the control plants.
Under these conditions, good (at least 70%) or total protection is observed at a dose of 500 ppm with the following compounds: […]

Series [3] deals with Phytophthora infestans. Kind of series: whole plant or invertebrate. The following applies: in Solanum lycopersicum, 120 h, read-out: % efficacy. It counts as in vivo.
The subject of the next series is Pyricularia oryzae. Kind of series: whole plant or invertebrate. Type of series: in vivo. The following applies: 144 h, read-out: % efficacy.

As a reminder, the chromatographic logP is a lipophilicity value derived from retention on a column. High values mean higher lipophilicity, low ones lower lipophilicity. In series [1], `Cn1oc(=O)nc1C(=NOCc1cccc(NCC2CCCCC2)n1)c1ccccc1` [Example 4] yielded a chromatographic logP of 2.44. This compound also displayed an Eff. % in the series on Phytophthora infestans [2] of 95%. In addition, the pest or weed control at 10 ppm in the series on Plasmopara viticola turned out to be 94%.
Take `Cn1oc(=O)nc1C(=NOCc1cccc(NC(=O)OCc2ccccc2)n1)c1ccccc1` [Example 17]: the “% efficacy” value in the series with Puccinia recondita stood at 83%. The compound further registered a chromatographic logP in series [1] of 3.41. Besides, the pest or weed control at 500 ppm in the series on Phytophthora infestans [3] is 100%. Also, the pest or weed control at 10 ppm with Plasmopara viticola amounted to 82%.
The compound `Cn1oc(=O)nc1/C(=N\OCc1cccc(NC(=O)OCCc2ccccc2)n1)c1ccccc1` [Example 15, 2-phenylethyl {6-[({[(Z)-(2-methyl-5-oxo-2,5-dihydro-1,2,4-oxadiazol-3-yl)(phenyl)methylene]amino}oxy)methyl]pyridin-2-yl}carbamate] yielded a chromatographic logP in series [1] of 3.57. In the series on Phytophthora infestans [3], the pest or weed control at 500 ppm is 99%. The pest or weed control at 10 ppm in the series with Plasmopara viticola came to 94%.
In turn, `C#CCCOC(=O)Nc1cccc(CO/N=C(/c2ccccc2)c2nc(=O)on2C)n1` [Example 1, but-3-yn-1-yl {6-[({[(Z)-(2-methyl-5-oxo-2,5-dihydro-1,2,4-oxadiazol-3-yl)(phenyl)methylene]amino}oxy)methyl]pyridin-2-yl}carbamate] showed a chromatographic logP in series [1] of 2.71. The same compound displayed an Eff. % with Phytophthora infestans [2] of 98%. For the same compound, the pest or weed control at 10 ppm in the series on Plasmopara viticola was found to be 99%.
For `Cn1oc(=O)nc1/C(=N\OCc1cccc(NCCC2CCCCC2)n1)c1ccccc1` [Example 3, 3-[(Z)-[({6-[(2-cyclohexylethyl)amino]pyridin-2-yl}methoxy)imino](phenyl)methyl]-2-methyl-1,2,4-oxadiazol-5(2H)-one], the chromatographic logP in series [1] was 2.43. Besides, the pest or weed control at 10 ppm with Plasmopara viticola came out at 93%.
In turn, `CCCCOCCNc1cccc(CON=C(c2ccccc2)c2nc(=O)on2C)n1` [Example 6] displayed a chromatographic logP in series [1] of 2.13. In addition, in the series with Phytophthora infestans [2], the Eff. % was 95%.
As to `CCCCC(=O)Nc1cccc(CON=C(c2cccc(OC)c2)c2nc(=O)o[nH]2)n1` [Example 54], in series [1], the chromatographic logP came out at 2.96. Further, the pest or weed control at 500 ppm in the series on Phytophthora infestans [3] was 100%; in the series on Pyricularia oryzae, 83%.
In the same order, the values of `CCCCCC(=O)Nc1cccc(CON=C(c2cccc(OC)c2)c2nc(=O)o[nH]2)n1` [Example 53] are 3.31, 95% and 75%.
The corresponding values for `O=C(COc1ccccc1)Nc1cccc(CON=C(c2cccc(F)c2)c2nc(=O)o[nH]2)n1` [Example 51] are 3.21, 100% and 83%.
`Cn1oc(=O)nc1C(=NOCc1cccc(NCCc2ccccc2)n1)c1ccccc1` [Example 7] displayed a chromatographic logP in series [1] of 2.23. This compound also came in with an Eff. % with Phytophthora infestans [2] of 95%. In addition, in the series with Plasmopara viticola, the pest or weed control at 10 ppm was determined as 96%.
On to `CCCCOC(=O)Nc1cccc(CON=C(c2ccccc2)c2nc(=O)on2C)n1` [Example 14], for which the chromatographic logP in series [1] turned out to be 3.39. In the series with Phytophthora infestans [3], the pest or weed control at 500 ppm amounted to 100%. For the same compound, in the series on Plasmopara viticola, the pest or weed control at 10 ppm amounted to 94%.
Consider `C#CCCOC(=O)Nc1cccc(CON=C(c2cccc(F)c2)c2nc(=O)o[nH]2)n1` [Example 49], for which the chromatographic logP in series [1] amounted to 2.8. Moreover, the pest or weed control at 500 ppm stood at 93% with Phytophthora infestans [3] and 83% in the series with Pyricularia oryzae.
In the same order, the values of `CC(C)CCOC(=O)Nc1cccc(CON=C(c2cccc(F)c2)c2nc(=O)o[nH]2)n1` [Example 52] are 3.83, 100% and 75%.
In turn, `Cn1oc(=O)nc1/C(=N\OCc1cccc(NC(=O)OC(C)(C)C)n1)c1cccc(F)c1` [Example 20, tert-butyl {6-[({[(Z)-(2-methyl-5-oxo-2,5-dihydro-1,2,4-oxadiazol-3-yl)(3-fluorophenyl)methylene]amino}oxy)methyl]pyridin-2-yl}carbamate] came in with a chromatographic logP in series [1] of 3.46. The pest or weed control at 500 ppm came out at 100% in the series on Phytophthora infestans [3] and 81% in the series with Pyricularia oryzae. In addition, the pest or weed control at 10 ppm with Plasmopara viticola came out at 74%.
As to `Cn1oc(=O)nc1C(=NOCc1cccc(NC(=O)C(C)(C)C)n1)c1ccccc1` [Example 9], the “% efficacy” value in the series with Puccinia recondita amounted to 71%. The chromatographic logP in series [1] worked out at 2.86. Further, the figures for the pest or weed control at 500 ppm in the series with Phytophthora infestans [3] and in the series on Pyricularia oryzae were 99% and 71%, respectively.
Consider `COc1cccc(C(=NOCc2cccc(NC(=O)C(C)Oc3ccccc3)n2)c2nc(=O)o[nH]2)c1` (stereo not drawn) [Example 44], for which the chromatographic logP in series [1] was 3.39. The values for the pest or weed control at 500 ppm in the series with Phytophthora infestans [3] and with Pyricularia oryzae were 100% and 83%, respectively.
`Cn1oc(=O)nc1/C(=N\OCc1cccc(NC(=O)OC(C)(C)C)n1)c1ccccc1` [Example 2, tert-butyl {6-[({[(Z)-(2-methyl-5-oxo-2,5-dihydro-1,2,4-oxadiazol-3-yl)(phenyl)methylene]amino}oxy)methyl]pyridin-2-yl}carbamate] had a chromatographic logP in series [1] of 3.31. The Eff. % in the series on Phytophthora infestans [2] turned out to be 100%. In addition, in the series with Plasmopara viticola, the pest or weed control at 10 ppm is 100%.
Turning to `COc1cccc(C(=NOCc2cccc(NC(=O)OC(C)(C)C)n2)c2nc(=O)on2C)c1` [Example 22], the “% efficacy” value in the series on Puccinia recondita is 94%. In series [1], this compound came in with a chromatographic logP of 3.39.
In series [1], `CCCCCOC(=O)Nc1cccc(CON=C(c2ccccc2)c2nc(=O)on2C)n1` [Example 13] registered a chromatographic logP of 3.81. For the same compound, the pest or weed control at 500 ppm in the series with Phytophthora infestans [3] is 100%. The pest or weed control at 10 ppm in the series with Plasmopara viticola amounted to 95%.
Take `C#CCOC(=O)Nc1cccc(CON=C(c2cccc(F)c2)c2nc(=O)o[nH]2)n1` [Example 46]: in series [1], the chromatographic logP came out at 2.69. Further, the pest or weed control at 500 ppm in the series with Phytophthora infestans [3] was found to be 100%; in the series on Pyricularia oryzae, 83%.
On to `CCCC(C)C(=O)Nc1cccc(CON=C(c2ccccc2)c2nc(=O)on2C)n1` (stereo not drawn) [Example 18], for which, in the series with Puccinia recondita, the “% efficacy” value amounted to 78%. For the same compound, the chromatographic logP in series [1] came out at 3.19. Moreover, in the series with Phytophthora infestans [3], the pest or weed control at 500 ppm amounted to 100%.
`CCCCC(=O)Nc1cccc(CON=C(c2ccccc2)c2nc(=O)on2C)n1` [Example 12] returned a chromatographic logP in series [1] of 2.9. Moreover, the pest or weed control at 500 ppm in the series on Phytophthora infestans [3] turned out to be 100%.
`CCCCOC(=O)Nc1cccc(CON=C(c2cccc(OC)c2)c2nc(=O)o[nH]2)n1` [Example 66]: the chromatographic logP in series [1] is 3.42. The pest or weed control at 500 ppm in the series on Phytophthora infestans [3] was found to be 70%.
In turn, `COc1cccc(C(=O)Nc2cccc(CON=C(c3cccc(F)c3)c3nc(=O)o[nH]3)n2)c1` [Example 64] yielded a chromatographic logP in series [1] of 3.13. For the same compound, the pest or weed control at 500 ppm with Phytophthora infestans [3] is 85%.
With `O=C(CCc1ccccc1)Nc1cccc(CON=C(c2cccc(F)c2)c2nc(=O)o[nH]2)n1` [Example 47], the chromatographic logP in series [1] worked out at 3.29. In addition, the pest or weed control at 500 ppm in the series on Phytophthora infestans [3] came out at 100%; in the series with Pyricularia oryzae, 75%.
As to `CCCCOC(=O)Nc1cccc(CON=C(c2cccc(F)c2)c2nc(=O)o[nH]2)n1` [Example 71], the chromatographic logP in series [1] came out at 3.48. In the series with Phytophthora infestans [3], the pest or weed control at 500 ppm came to 95%.
With `CC(C)CC(=O)Nc1cccc(CON=C(c2ccccc2)c2nc(=O)on2C)n1` [Example 19], the “% efficacy” value with Puccinia recondita is given as 89%. In series [1], this compound came in with a chromatographic logP of 2.82. For the same compound, the pest or weed control at 500 ppm in the series with Phytophthora infestans [3] was 100%.
`C#CCCOC(=O)Nc1cccc(CON=C(c2cccc(C)c2)c2nc(=O)on2C)n1` [Example 84]: the chromatographic logP in series [1] was 2.96. Moreover, the pest or weed control at 500 ppm in the series with Phytophthora infestans [3] was 100%.
Take `COc1cccc(C(=O)Nc2cccc(CON=C(c3cccc(OC)c3)c3nc(=O)o[nH]3)n2)c1` [Example 63]: the chromatographic logP in series [1] turned out to be 3.06. Further, the pest or weed control at 500 ppm with Phytophthora infestans [3] worked out at 80%.
In the same order, the values of `CCCCCC(=O)Nc1cccc(CON=C(c2cccc(F)c2)c2nc(=O)o[nH]2)n1` [Example 68] are 3.37 and 98%.
In the same order, the values of `CCCCCOC(=O)Nc1cccc(CON=C(c2cccc(OC)c2)c2nc(=O)on2C)n1` [Example 102] are 3.83 and 98%.
In the same order, the values of `COc1cccc(C(=NOCc2cccc(NC(=O)Cc3cccc(F)c3)n2)c2nc(=O)on2C)c1` [Example 105] are 3.09 and 75%.
